# According to PMC11376040, “A novel PDHK inhibitor restored cognitive dysfunction and limited neurodegeneration without affecting amyloid pathology in 5xFAD mouse, a model of Alzheimer’s disease” (Alzheimer's Research & Therapy, 2024):
# Key:
# Test in all cases: PDH-coupled PDHK assay (residual PDH activity, NADH absorbance at […] nm), […] ATP
# Type in all cases: biochemical
# [1] = molecular target: T1, human PDHK1 (hPDHK1, pyruvate dehydrogenase kinase 1) (Homo sapiens, UniProt Q15118)
# T1 construct: gene PDK1; recombinant, Flag-tag at the N-terminus; with PDH enzyme derived from porcine heart (PDH/PDHK complex)
# [2] = molecular target: T2, human PDHK2 (hPDHK2, pyruvate dehydrogenase kinase 2) (Homo sapiens, UniProt Q15119)
# T2 construct: gene PDK2; recombinant, Flag-tag at the N-terminus; with PDH enzyme derived from porcine heart (PDH/PDHK complex)
# [3] = molecular target: T3, human PDHK3 (hPDHK3, pyruvate dehydrogenase kinase 3) (Homo sapiens, UniProt Q15120)
# T3 construct: gene PDK3; recombinant, Flag-tag at the N-terminus; with PDH enzyme derived from porcine heart (PDH/PDHK complex)
# T3 sequence (Q15120 whole entry): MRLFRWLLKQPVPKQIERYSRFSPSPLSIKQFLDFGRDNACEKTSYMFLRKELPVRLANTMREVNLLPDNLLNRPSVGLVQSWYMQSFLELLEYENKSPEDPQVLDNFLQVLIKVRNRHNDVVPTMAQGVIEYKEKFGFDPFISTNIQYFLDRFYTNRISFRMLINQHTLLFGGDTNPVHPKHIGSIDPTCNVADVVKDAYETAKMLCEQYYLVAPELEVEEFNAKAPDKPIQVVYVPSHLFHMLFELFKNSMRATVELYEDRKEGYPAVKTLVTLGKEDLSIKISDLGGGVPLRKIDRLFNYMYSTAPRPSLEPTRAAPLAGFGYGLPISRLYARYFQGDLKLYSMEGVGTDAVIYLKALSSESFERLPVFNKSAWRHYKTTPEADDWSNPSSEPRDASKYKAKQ
# T1 sequence (Q15118 29-436): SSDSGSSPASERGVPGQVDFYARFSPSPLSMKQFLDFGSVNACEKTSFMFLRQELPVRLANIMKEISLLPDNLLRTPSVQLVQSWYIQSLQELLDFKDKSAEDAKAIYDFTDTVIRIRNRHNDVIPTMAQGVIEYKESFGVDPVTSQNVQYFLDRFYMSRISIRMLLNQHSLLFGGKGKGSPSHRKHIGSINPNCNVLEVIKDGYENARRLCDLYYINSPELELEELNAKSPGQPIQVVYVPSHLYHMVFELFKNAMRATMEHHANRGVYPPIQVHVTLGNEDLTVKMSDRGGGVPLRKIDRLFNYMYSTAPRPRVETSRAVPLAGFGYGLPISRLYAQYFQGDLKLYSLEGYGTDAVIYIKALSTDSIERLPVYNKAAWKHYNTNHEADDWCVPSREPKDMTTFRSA
structure (smiles),measurement,setting,value
C[C@H]1CN(C(=O)c2c(F)cc(C#N)cc2F)Cc2cnc([C@@](C)(O)C(F)(F)F)n21 [Compound A],IC50,[1],8.17 ± 0.56 nM
same,IC50,[2],5.33 ± 0.12 nM
same,IC50,[3],50.5 ± 3.23 nM
